According to the METLIN SMRT retention time set (Domingo-Almenara et al. 2019):

Assay: gradient 5% acetonitrile 3 min, to 50% in 2 min, to 85% in 15 min, held 3 min, 100 µL/min
Settings: column: Zorbax Extend-C18 2.1 x 50 mm; eluents: water / acetonitrile, 0.1% formic acid
Summary of the method: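 Standards, all pure, were combined into mixtures of ~100 molecules and run at 100 μL/min on a Zorbax Extend-C18 column (2.1 × 50 mm, 1.8 μm) with water and acetonitrile, each containing 0.1% formic acid. A coupled quadrupole time-of-flight mass spectrometer operated in positive and negative ionization mode. Retention time values come from computationally picked adduct peaks, each inspected manually.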
`Cc1ccc(NS(=O)(=O)c2cc3n(c2)CCCNC3=O)c(C)c1` gave an RP-LC retention time of 678 s. In the case of `COC(=O)c1nnn(-c2cc(Cl)ccc2OC)c1C(=O)OC`, the RP-LC retention time is reported as 898 s. Work on `Cc1cccc(-c2nc(N3CCOCC3)ncc2C(=O)O)c1` yielded an RP-LC retention time of 787 s. In the case of `CCC(=O)N1CCc2cc(-c3ccc(C(=O)NCc4ccco4)cc3)ccc21`, the RP-LC retention time is reported as 849 s. In the case of `Cc1cc(C(=O)N2CCN(c3ccccc3F)CC2)n[nH]1`, the RP-LC retention time is reported as 714 s. `O=C(Cn1cccc1-c1nc(-c2ccc(Cl)cc2)cs1)NCCCN1CCOCC1` gave an RP-LC retention time of 612 s. In the case of `O=C(NC1CC1)c1nc(C(=O)N2CCN(C3CCCCC3)CC2)cs1`, the RP-LC retention time is reported as 601 s. `O=C(CCNc1c(-c2cccc(F)c2)nc2cnccn12)NCc1ccc2c(c1)OCO2` gave an RP-LC retention time of 712 s. Compound `CS(=O)(=O)Nc1cccc(NC(=O)c2cc(-c3cccs3)[nH]n2)c1` has an RP-LC retention time of 699 s. With `Cc1noc(-c2cccn2Cc2ccc(Cl)cc2)n1` the RP-LC retention time was 1090 s. `Fc1ccccc1-c1noc(N2CCCCC2)n1` gave an RP-LC retention time of 982 s. `O=C(CN1CN(c2ccccc2)c2ncccc2S1(=O)=O)Nc1ccccc1Cl` gave an RP-LC retention time of 934 s. For `O=S(=O)(CCCOc1ccc2c(c1)OCO2)NCCC1=CCCCC1`, the RP-LC retention time was 1000 s. In the case of `O=C(Cc1nnc(-c2ccc3ncccc3c2)o1)NCCc1ccccc1`, the RP-LC retention time is reported as 702 s. For `CC(C)c1nnc(C2CN(C)CC23CCN(Cc2cccc(C(F)(F)F)c2)CC3)o1` (stereo not drawn), the RP-LC retention time was 578 s. With `COc1ccc(-c2csc(Nc3ccc(Br)cn3)n2)cc1` the RP-LC retention time was 1170 s. `Cc1nc2cc(-c3noc(-c4ccc5ccccc5n4)n3)ccc2o1` gave an RP-LC retention time of 998 s. For `COc1ccc(NC(=O)c2c(C)oc3c2C2=NCCN2C=N3)cc1Cl`, the RP-LC retention time was 625 s. For `COc1ccc2c(c1)CCc1sc(NC(=O)c3ccc(OC)c(Br)c3)nc1-2`, the RP-LC retention time was 1210 s. `CC(NC(=O)c1ccncc1)C(=O)Nc1nc2ccccc2[nH]1` (stereo not drawn) gave an RP-LC retention time of 566 s. In the case of `Cc1ccc(=O)n(CCNC(=O)C2CC(=O)N(c3ccc(C)c(C)c3)C2)n1` (stereo not drawn), the RP-LC retention time is reported as 615 s. With `CCCn1c(=O)c(N2CCC(NC(=O)Nc3cccc(C)c3)CC2)nc2ccccc21` the RP-LC retention time was 1030 s. In the case of `CCOC(=O)c1cccc(NC(=O)C2CCN(S(=O)(=O)c3cn(C)cn3)CC2)c1`, the RP-LC retention time is reported as 735 s. Work on `CCOc1ccc(NC(=O)c2cn(-c3cc(N4CCCC(C)C4)ncn3)cn2)cc1` (stereo not drawn) yielded an RP-LC retention time of 1130 s. `O=C(NC1CCN(c2cc(-c3cccs3)[nH]n2)CC1)c1ccc(Cl)cc1` gave an RP-LC retention time of 749 s. For `CCOC(=O)c1ccc(NC2=NS(=O)(=O)C(c3ccc(F)cc3)=C2C)cc1`, the RP-LC retention time was 948 s. `CCOC(=O)CCc1c(C)nn(-c2cc(N3CCOCC3)ncn2)c1C` gave an RP-LC retention time of 863 s. In the case of `CCCCn1cc(S(=O)(=O)Nc2ccc(C)cc2)c2cccnc21`, the RP-LC retention time is reported as 943 s. `CCc1cc(C2CCCN2C(=O)Nc2cccc(OC)c2)on1` (stereo not drawn) gave an RP-LC retention time of 835 s. With `NC(=O)C1CCN(C(=O)c2nnn(-c3ccc(Cl)cc3)c2-c2cccnc2)CC1` the RP-LC retention time was 633 s. Compound `Cc1ccc2nc(-c3cccc(S(=O)(=O)N4CCOCC4)c3)cn2c1` has an RP-LC retention time of 605 s. With `CCOc1ccc(NC(=O)C2CCN(C(=O)C3Sc4ccccc4NC3=O)CC2)cc1` (stereo not drawn) the RP-LC retention time was 725 s. `COc1ccc(C)cc1NC(=O)C1CCN(c2nc(C3CCC3)nc3csc(C)c23)CC1` gave an RP-LC retention time of 847 s. Work on `COc1ccc2c(c1)C1(CCN(C(=O)C(C)(C)C)C1)C(=O)N2` (stereo not drawn) yielded an RP-LC retention time of 703 s. `Cc1ccc(CNC(=O)CSc2nccc(N3CCN(c4cc(C)ccc4C)CC3)n2)cc1` showed an RP-LC retention time of 958 s. `Cc1cc(C)cc(C(=O)NCc2ccc3c(c2)ncn3C)c1` showed an RP-LC retention time of 615 s. `O=C1CCc2cc(S(=O)(=O)NCCCc3ccccc3)cc3c2N1CCC3` showed an RP-LC retention time of 879 s. `O=C(c1ccccc1OCC1CCCN(C2CCC3(CC2)OCCO3)C1)N1CCCC1` (stereo not drawn) gave an RP-LC retention time of 622 s. In the case of `COCc1nc(N2CCN(c3ccccc3F)CC2)ncc1C(=O)O`, the RP-LC retention time is reported as 827 s. Work on `c1cc2nncn2nc1NC1CCCCC1` yielded an RP-LC retention time of 790 s. `Cc1cc(N2CCC(NC(=O)Nc3ccc(Cl)cc3)C2=O)ccc1F` (stereo not drawn) showed an RP-LC retention time of 920 s. In the case of `Cc1cccc(N2CCN(c3cc(C(=O)O)c4cc(NC(=O)CC(C)C)ccc4n3)CC2)c1`, the RP-LC retention time is reported as 710 s. Work on `Cc1cc(C(=O)N2C[C@@H](CO)[C@H](c3nc(C4CC4)no3)C2)c(C)o1` yielded an RP-LC retention time of 706 s. Work on `Cc1ccc(C)c2sc(N(C)CC(=O)O)nc12` yielded an RP-LC retention time of 793 s. Work on `CC(=O)N1CCCC(c2nc(CNC(=O)C3CCC3)cs2)C1` (stereo not drawn) yielded an RP-LC retention time of 631 s. In the case of `O=C(COc1ccc(F)cc1)N1CCN(c2nc(CN3CCCCC3)cs2)CC1`, the RP-LC retention time is reported as 655 s. With `Cc1nc(C2(C)CCN(S(=O)(=O)c3ccc(F)c(C)c3)CC2)no1` the RP-LC retention time was 927 s. Work on `Cc1nc(-c2ccccc2)sc1C(=O)N1CCCC1` yielded an RP-LC retention time of 824 s. `Cn1c(=O)n(CC(=O)O)c(=O)c2c1nc1n2CCCN1c1ccc(F)cc1` gave an RP-LC retention time of 632 s. Compound `CC(C)c1noc(C2(NC(=O)c3cccc(Cl)c3)CCCCC2)n1` has an RP-LC retention time of 1130 s. For `CN(C)CCn1nnc2cc(-c3noc(-c4ccc(Br)cc4)n3)ccc21`, the RP-LC retention time was 727 s. `O=C(CN1CCCCC1c1nc(-c2ccc(F)cc2)no1)NCc1cccs1` (stereo not drawn) showed an RP-LC retention time of 1020 s. Work on `Cc1ccccc1-c1noc(CN2C(=O)C(C)Oc3ccccc32)n1` (stereo not drawn) yielded an RP-LC retention time of 1110 s. In the case of `Cc1ccc(-c2nccn3cc(C(=O)NCc4ccncc4)nc23)cc1`, the RP-LC retention time is reported as 633 s. `CC(Oc1ccc(-c2cnc3ccccc3n2)cc1)C(=O)N1CCN(c2ncccn2)CC1` (stereo not drawn) gave an RP-LC retention time of 872 s. Work on `Cc1nc(N2CCN(Cc3ccc4c(c3)OCO4)CC2)nc2c1C(=O)CC(c1cccs1)C2` (stereo not drawn) yielded an RP-LC retention time of 753 s. In the case of `O=C(Nc1c(C(=O)N2CCN(c3ccccn3)CC2)oc2ccccc12)c1ccc([N+](=O)[O-])cc1`, the RP-LC retention time is reported as 757 s. Compound `O=C(NCCc1csc(C2CCN(C(=O)C3CCCCC3)CC2)n1)C1CC1` has an RP-LC retention time of 734 s. For `Cc1cc(F)ccc1NC(=O)CN1C(=O)NC2(CCCCC2)C1=O`, the RP-LC retention time was 764 s. In the case of `CCCNc1cc(N2CCC(CCC(=O)N3CCN(c4ccccc4)CC3)CC2)ncn1`, the RP-LC retention time is reported as 603 s. Work on `Cc1oc(-c2ccc(NC(=O)c3ccc(N(C)C)cc3)cc2)nc1Cn1cccn1` yielded an RP-LC retention time of 875 s. `COc1cccc(CNC2=NCCNC23CCN(S(=O)(=O)c2ccc(C)c(C)c2)CC3)c1` showed an RP-LC retention time of 775 s. Work on `Cc1ccc2c(c1)N(C(=O)N1CCC(C(=O)NCc3ccccc3)CC1)CCO2` yielded an RP-LC retention time of 820 s. For `Cc1sc(NC(=O)c2ccccc2)c(C(=O)NCCN(C)C)c1C`, the RP-LC retention time was 677 s. Work on `Cc1cnc(C(=O)N2CC(n3cc(COc4ccc(F)cc4)nn3)C2)cn1` yielded an RP-LC retention time of 731 s. `COc1ccc(NC(=O)N2CCC(N3CCN(Cc4ccccc4)C3=O)CC2)c(OC)c1` showed an RP-LC retention time of 796 s. Work on `COc1cc(C(=O)NC2CCN(c3cc(-c4cccs4)[nH]n3)C2)cc(OC)c1OC` (stereo not drawn) yielded an RP-LC retention time of 698 s. Compound `Cc1sc2ncnc(N3CCCCC3)c2c1C(=O)NCc1cc(F)ccc1F` has an RP-LC retention time of 1020 s.
